These results are taken from US11731977B2, “SGC stimulators” (Cyclerion Therapeutics, Inc., priority 2016, dated 2023).

Molecules are shown by their SMILES.

The target in this experiment is T1, sGC enzyme (Homo sapiens, UniProt Q02108+Q02153).
T1 construct: sGC enzyme activity values in HEK cells, determined by the GloSensor assay; host or cells: HEK293 cells stably expressing GloSensor 40F cGMP biosensor
T1 sequence (Q02153 1-619): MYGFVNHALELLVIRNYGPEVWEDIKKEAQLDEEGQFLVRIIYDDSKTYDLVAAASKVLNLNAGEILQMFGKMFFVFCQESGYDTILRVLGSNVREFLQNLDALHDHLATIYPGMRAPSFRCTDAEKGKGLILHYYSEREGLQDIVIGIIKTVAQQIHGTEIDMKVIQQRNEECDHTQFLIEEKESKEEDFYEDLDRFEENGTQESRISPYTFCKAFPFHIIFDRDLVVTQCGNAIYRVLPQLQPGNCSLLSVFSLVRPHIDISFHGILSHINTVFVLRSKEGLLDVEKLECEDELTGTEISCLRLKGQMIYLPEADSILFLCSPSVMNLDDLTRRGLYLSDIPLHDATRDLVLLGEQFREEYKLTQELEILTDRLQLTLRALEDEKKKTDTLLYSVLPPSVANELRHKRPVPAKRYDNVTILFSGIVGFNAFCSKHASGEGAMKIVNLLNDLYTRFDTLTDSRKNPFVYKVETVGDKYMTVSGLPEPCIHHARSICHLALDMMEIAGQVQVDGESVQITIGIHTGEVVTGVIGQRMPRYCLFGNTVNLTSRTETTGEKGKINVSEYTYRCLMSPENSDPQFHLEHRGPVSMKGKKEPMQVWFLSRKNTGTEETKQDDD
T1 sequence (Q02108 1-690): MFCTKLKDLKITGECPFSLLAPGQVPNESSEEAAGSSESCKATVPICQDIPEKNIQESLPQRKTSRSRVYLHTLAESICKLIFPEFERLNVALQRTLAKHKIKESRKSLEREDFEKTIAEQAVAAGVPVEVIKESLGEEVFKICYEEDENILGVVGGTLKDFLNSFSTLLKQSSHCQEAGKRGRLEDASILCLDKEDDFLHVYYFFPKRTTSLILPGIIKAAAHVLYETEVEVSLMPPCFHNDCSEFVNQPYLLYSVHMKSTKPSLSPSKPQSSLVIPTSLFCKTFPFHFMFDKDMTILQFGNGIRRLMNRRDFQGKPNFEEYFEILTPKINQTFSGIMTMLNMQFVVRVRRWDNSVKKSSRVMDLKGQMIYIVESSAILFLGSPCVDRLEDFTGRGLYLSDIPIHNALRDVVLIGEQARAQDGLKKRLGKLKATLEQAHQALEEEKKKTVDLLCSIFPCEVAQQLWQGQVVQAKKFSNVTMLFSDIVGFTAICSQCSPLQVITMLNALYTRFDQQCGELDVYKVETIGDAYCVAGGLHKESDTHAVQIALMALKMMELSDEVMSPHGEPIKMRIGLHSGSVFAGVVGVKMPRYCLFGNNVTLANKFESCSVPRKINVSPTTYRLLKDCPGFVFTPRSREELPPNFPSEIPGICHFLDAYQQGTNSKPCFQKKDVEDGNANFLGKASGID
The experiment is described as follows: cGMP GloSensor cell-based assay, 384-well format (Example 2a). The following applies: HEK293 GloSensor 40F cGMP cells; 10 μM DETA-NONOate; 50% of high control (30 μM Compound Y); read-out: Abs EC50. The source says:
Human embryonic kidney cells (HEK293) cells expressing GloSensor™ 40F cGMP (Part No: CS182801, Promega) were used to evaluate the activity of test compounds. The luminescent biosensors (engineered luciferase) that were incorporated into these cells detect cGMP formed by the compounds stimulating the sGC enzyme and emit luminescence.
cGMP GloSensor cells were maintained in Dulbecco's Modification of Eagle's Medium (DMEM) supplemented with fetal bovine serum (FBS, 10% final) and hygromycine (200 ug/ml). The day before assay, cells were plated in DMEM with 10% FBS in a 50 μL volume at a density of 1.5×10^4 cells/well in a poly-D-lysine coated 384-well flat white-bottom plate (Corning Cat No 35661). Cells were incubated overnight at 37° C. in a humidified chamber with 5% CO2. The next day, medium was removed and cells were replaced with 40 ul/well of GloSensor™, 2 mM (Promega Cat No E1291). Cells were treated for 90 minutes at 25° C. to allow the substrate to equilibrate in the cells. Test compounds and Diethylenetriamine NONOate (DETA-NONOate, or DETA-NO) was diluted to 3 mM (20×) in serum-free CO2 independent medium and serially diluted at 4× dilutions to create 5× dose curve from which 10 ul was added to the wells (x μM concentration for test compound solution and 10 μM concentration for DETA-NONOate solution; wherein x is one of the following final concentrations: 30000 nM, 7500 nM, 1875 nM, 468.8 nM, 117.2 nM, 29.29 nM, 7.320 nM, 1.830 nM, 0.460 nM, 0.114 nM, and 0.029 nM).
For the kinetics studies, luminescense was measured right away for 0.2 sec per well with Envision (Perkin Elmer). For endpoint SAR screening, data were collected after 55 min incubation at room temperature.
Data were normalized to a high control using the following equation: 100*(Sample−Low Control)/(High Control−Low Control), where the low control is the average of 16 samples treated with 1% DMSO, and the high control is the average of 16 samples treated with 30 μM of Compound Y depicted below. Data were fit using a 4-parameter fit (log(agonist) vs. response—variable slope) using GraphPad Prism Software v.5. n=2 for all compounds. The Absolute (Abs) EC50 was interpolated from the curve fit and is defined as the concentration at which a given compound elicits 50% of the high control response after data normalization as indicated above. Compounds failing to elicit a minimum response of 50% are reported as >30 μM or ND. For compounds run in duplicate or n higher than 2, the result herein given is the geometric mean of the several results obtained.

By EC50 is commonly meant the midpoint of the concentration-response curve. Turning to `Fc1ccccc1Cc1nc(-c2nc(C3CC3(F)F)n[nH]2)cn2ccnc12` (racemic) [Compound I-64, rac-6-(3-(2,2-Difluorocyclopropyl)-1H-1,2,4-triazol-5-yl)-8-(2-fluorobenzyl)imidazo[1,2-a]pyrazine], the EC50 was in the range of 100 to 1000 nM.
Turning to `Cc1n[nH]c(-c2cn3ccnc3c(Cc3ccccc3F)n2)n1` [Compound I-4, 8-(2-fluorobenzyl)-6-(3-methyl-1H-1,2,4-triazol-5-yl)imidazo[1,2-a]pyrazine], the EC50 lay within 100 to 1000 nM.
For the compound `Fc1cccc(Cc2nc(-c3nc(C(F)F)n[nH]3)cn3ncnc23)c1F` [Compound I-17, 8-(2,3-Difluorobenzyl)-6-(3-(difluoromethyl)-1H-1,2,4-triazol-5-yl)-[1,2,4]triazolo[1,5-a]pyrazine], the EC50 is at most 100 nM.
Turning to `Fc1cccc(Cc2nc(-c3nc(C(F)(F)F)n[nH]3)cn3ncnc23)c1F` [Compound I-18, 8-(2,3-Difluorobenzyl)-6-(3-(trifluoromethyl)-1H-1,2,4-triazol-5-yl)-[1,2,4]triazolo[1,5-a]pyrazine], the EC50 was at most 100 nM.
As for `Fc1cccc(F)c1Cc1nc(-c2nc(C(F)(F)F)n[nH]2)cn2ccnc12` [Compound I-19, 8-(2,6-Difluorobenzyl)-6-(3-(trifluoromethyl)-1H-1,2,4-triazol-5-yl)imidazo[1,2-a]pyrazine], the EC50 is above 1000 nM.
Consider `Fc1cccc(F)c1Cc1nc(-c2nc(C(F)F)n[nH]2)cn2ccnc12` [Compound I-20, 8-(2,6-Difluorobenzyl)-6-(3-(difluoromethyl)-1H-1,2,4-triazol-5-yl)imidazo[1,2-a]pyrazine], for which the EC50 is above 1000 nM.
In the case of `Fc1cccc(Cc2nc(-c3nc(C(F)F)n[nH]3)cn3ncnc23)c1` [Compound I-21, 6-(3-(Difluoromethyl)-1H-1,2,4-triazol-5-yl)-8-(3-fluorobenzyl)-[1,2,4]triazolo[1,5-a]pyrazine], the EC50 was at most 100 nM.
Take `Fc1cccc(Cc2nc(-c3nc(C(F)(F)F)n[nH]3)cn3ncnc23)c1` [Compound I-22, 8-(3-Fluorobenzyl)-6-(3-(trifluoromethyl)-1H-1,2,4-triazol-5-yl)-[1,2,4]triazolo[1,5-a]pyrazine]: the EC50 was at most 100 nM.
For the compound `Fc1ccc(F)c(Cc2nc(-c3nc(C(F)F)n[nH]3)cn3ncnc23)c1` [Compound I-23, 8-(2,5-Difluorobenzyl)-6-(3-(difluoromethyl)-1H-1,2,4-triazol-5-yl)-[1,2,4]triazolo[1,5-a]pyrazine], the EC50 is at most 100 nM.
For `Fc1cc(F)cc(Cc2nc(-c3nc(C(F)(F)F)n[nH]3)cn3ncnc23)c1` [Compound I-24, 8-(3,5-Difluorobenzyl)-6-(3-(trifluoromethyl)-1H-1,2,4-triazol-5-yl)-[1,2,4]triazolo[1,5-a]pyrazine], the EC50 is at most 100 nM.
For the compound `Fc1cc(F)cc(Cc2nc(-c3nc(C(F)F)n[nH]3)cn3ncnc23)c1` [Compound I-25, 8-(3,5-Difluorobenzyl)-6-(3-(difluoromethyl)-1H-1,2,4-triazol-5-yl)-[1,2,4]triazolo[1,5-a]pyrazine], the EC50 was at most 100 nM.
As to `Fc1ccccc1Cc1nc(-c2nc(C(F)F)n[nH]2)cn2ncnc12` [Compound I-26, 6-(3-(Difluoromethyl)-1H-1,2,4-triazol-5-yl)-8-(2-fluorobenzyl)-[1,2,4]triazolo[1,5-a]pyrazine], the EC50 is at most 100 nM.
Turning to `Fc1cc(F)cc(Cc2nc(-c3nc(C(F)(F)F)n[nH]3)cn3ccnc23)c1` [Compound I-29, 8-(3,5-Difluorobenzyl)-6-(3-(trifluoromethyl)-1H-1,2,4-triazol-5-yl)imidazo[1,2-a]pyrazine], the EC50 was at most 100 nM.
Turning to `Fc1cc(F)cc(Cc2nc(-c3nc(C(F)F)n[nH]3)cn3ccnc23)c1` [Compound I-30, 8-(3,5-Difluorobenzyl)-6-(3-(difluoromethyl)-1H-1,2,4-triazol-5-yl)imidazo[1,2-a]pyrazine], the EC50 is at most 100 nM.
For `Cc1cn2cc(-c3nc(C(F)(F)F)n[nH]3)nc(Cc3ccccc3F)c2n1` [Compound I-31, 8-(2-Fluorobenzyl)-2-methyl-6-(3-(trifluoromethyl)-1H-1,2,4-triazol-5-yl)imidazo[1,2-a]pyrazine], the concentration giving a half-maximal response (EC50) was in the range of 100 to 1000 nM.
For `Cc1cn2cc(-c3nc(C(F)F)n[nH]3)nc(Cc3ccccc3F)c2n1` [Compound I-32, 6-(3-(Difluoromethyl)-1H-1,2,4-triazol-5-yl)-8-(2-fluorobenzyl)-2-methylimidazo[1,2-a]pyrazine], the 50% effective concentration (EC50) was above 1000 nM.
Regarding `Fc1ccc(F)c(Cc2nc(-c3nc(C(F)(F)F)n[nH]3)cn3ncnc23)c1` [Compound I-33, 8-(2,5-Difluorobenzyl)-6-(3-(trifluoromethyl)-1H-1,2,4-triazol-5-yl)-[1,2,4]triazolo[1,5-a]pyrazine], the EC50 is at most 100 nM.
Consider `Cc1c(F)cc(Cc2nc(-c3nc(C(F)(F)F)n[nH]3)cn3ccnc23)cc1F` [Compound I-34, 8-(3,5-Difluoro-4-methylbenzyl)-6-(3-(trifluoromethyl)-1H-1,2,4-triazol-5-yl)imidazo[1,2-a]pyrazine], for which the concentration for a half-maximal effect (EC50) was at most 100 nM.
As for `Cc1c(F)cc(Cc2nc(-c3nc(C(F)F)n[nH]3)cn3ccnc23)cc1F` [Compound I-35, 8-(3,5-Difluoro-4-methylbenzyl)-6-(3-(difluoromethyl)-1H-1,2,4-triazol-5-yl)imidazo[1,2-a]pyrazine], the EC50 was at most 100 nM.
As for `Cn1cnc2c(Cc3ccccc3F)nc(-c3nc(C(F)(F)F)n[nH]3)cc21` [Compound I-36, 4-(2-Fluorobenzyl)-1-methyl-6-(3-(trifluoromethyl)-1H-1,2,4-triazol-5-yl)-1H-imidazo[4,5-c]pyridine], the EC50 was above 1000 nM.
On to `Cn1cnc2c(Cc3ccccc3F)nc(-c3nc(C(F)(F)F)n[nH]3)nc21` [Compound I-37, 6-(2-Fluorobenzyl)-9-methyl-2-(3-(trifluoromethyl)-1H-1,2,4-triazol-5-yl)-9H-purine], for which the EC50 was above 1000 nM.
Regarding `Cc1nc(-c2cn3ccnc3c(Cc3ccccc3F)n2)nn1CC(F)(F)F` [Compound I-38, 8-(2-fluorobenzyl)-6-(5-methyl-1-(2,2,2-trifluoroethyl)-1H-1,2,4-triazol-3-yl)imidazo[1,2-a]pyrazine], the EC50 was at most 100 nM.
